Test system: intrahepatic lymphocytes (IHL)
Assay: IFN-γ ELISPOT of intrahepatic lymphocytes stimulated with individual HBRV peptides
Format: cell-based, human
From the text: We isolated intrahepatic lymphocytes (IHL) to increase the likelihood of finding HBRV reactive lymphocytes (FIG. 3). IHL were extracted from 5 PBC subjects and 4 LT controls, as described^58 (FIG. 4B). ELISPOT was employed to detect IFN-γ spot forming colonies (SFC) using 100,000 IHL per reaction. Individual peptides from HBRV GAG and Env (immunosuppressive domains (ISD) peptides removed) were used to perform 140 analyses per sample with […] as positive and no stimulus as negative control. We found 15 GAG and 21 Env peptides that produced SFC above background levels (FIG. 6A).
Cellular immune responses have been found using pooled peptides of the HBRV Gag (n=58) and Env (n=85) proteins. […] In order to characterize immunodominant HBRV epitopes, we screened intra-hepatic lymphocytes (IHL) from PBC subjects and control subjects for evidence of IFNg production. Methods: IHL were isolated from liver transplant recipients with PBC (n=5) and other hepatic disorders (n=4). IHL were individually stimulated with 15-mer peptides from HBRV Gag or Env proteins (n=144) or the characterized CD8+ reactive epitope to pyruvate dehydrogenase-E2 (PDH-E2). ELISpot was used to measure spot forming colonies (SFC) producing IFN-g.

In the case of TIYLGGSPDFHGFRNMSG [Env 17], the “number of PBC subjects whose IHL were reactive (IFN-γ producing)” value (5 PBC subjects) is reported as 1 and the “SFC level in the reactive PBC subject's IHL” value (FIG. 6A) is reported as under 50 SFC.
